Results taken from ChEMBL document CHEMBL3132792, “Exploring the effect of N-substitution in nor-lobelane on the interaction with VMAT2: discovery of a potential clinical candidate for treatment of methamphetamine abuse” (Medchemcomm, 2013).

Assays:
[1] = target: T1, Synaptic vesicular amine transporter (Rattus norvegicus, UniProt Q01827); assay: Inhibition of [3H]DA uptake at VMAT2 in rat striatal synaptic vesicles
[2] = target: T1, Synaptic vesicular amine transporter; assay: Inhibition of [3H]DTBZ binding to VMAT2 in rat synaptic vesicle membranes; format: cell membranes

T1 sequence (Q01827 whole entry): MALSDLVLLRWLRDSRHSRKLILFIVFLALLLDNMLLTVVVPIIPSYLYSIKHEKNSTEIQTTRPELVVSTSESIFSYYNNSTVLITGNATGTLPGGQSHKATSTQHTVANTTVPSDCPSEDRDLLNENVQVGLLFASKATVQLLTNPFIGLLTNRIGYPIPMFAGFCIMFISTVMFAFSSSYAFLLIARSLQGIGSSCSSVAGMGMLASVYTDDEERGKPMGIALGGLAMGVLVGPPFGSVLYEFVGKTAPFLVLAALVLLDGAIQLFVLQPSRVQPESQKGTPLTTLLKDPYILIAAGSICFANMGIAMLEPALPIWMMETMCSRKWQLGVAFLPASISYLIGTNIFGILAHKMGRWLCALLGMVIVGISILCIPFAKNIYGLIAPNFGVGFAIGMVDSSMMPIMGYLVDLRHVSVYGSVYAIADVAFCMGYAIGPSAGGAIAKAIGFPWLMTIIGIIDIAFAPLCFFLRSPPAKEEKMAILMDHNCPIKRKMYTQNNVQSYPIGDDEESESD

Compound | Ki [1] | Ki [2]
c1ccc(CC[C@H]2CCC[C@@H](CCc3ccccc3)N2)cc1 | 44 nM | –
CCN1[C@@H](CCc2ccccc2)CCC[C@H]1CCc1ccccc1 | 60 nM | –
CCCN1[C@@H](CCc2ccccc2)CCC[C@H]1CCc1ccccc1 | 87 nM | –
COC(=O)CN1[C@@H](CCc2ccccc2)CCC[C@H]1CCc1ccccc1 | 340 nM | 4400 nM
OCCN1[C@@H](CCc2ccccc2)CCC[C@H]1CCc1ccccc1 | 170 nM | 1430 nM
N#CCN1[C@@H](CCc2ccccc2)CCC[C@H]1CCc1ccccc1 | 4490 nM | 22600 nM
NCCN1[C@@H](CCc2ccccc2)CCC[C@H]1CCc1ccccc1 | 510 nM | 5590 nM
CN(C)N1[C@@H](CCc2ccccc2)CCC[C@H]1CCc1ccccc1 | 54 nM | > 100000 nM
OC[C@H](O)CN1[C@@H](CCc2ccccc2)CCC[C@H]1CCc1ccccc1 | 190 nM | 560 nM
OC[C@@H](O)CN1[C@@H](CCc2ccccc2)CCC[C@H]1CCc1ccccc1 | 860 nM | 1280 nM
OC[C@@H](O)CN1[C@@H](CCc2cccc(F)c2)CCC[C@H]1CCc1cccc(F)c1 | 1030 nM | 1080 nM
COc1ccccc1CC[C@H]1CCC[C@@H](CCc2ccccc2OC)N1C[C@@H](O)CO | 490 nM | 1040 nM
COc1ccccc1CC[C@H]1CCC[C@@H](CCc2ccccc2OC)N1C[C@H](O)CO | 790 nM | 1870 nM
COc1cccc(CC[C@H]2CCC[C@@H](CCc3cccc(OC)c3)N2C[C@@H](O)CO)c1 | 140 nM | 460 nM
COc1cccc(CC[C@H]2CCC[C@@H](CCc3cccc(OC)c3)N2C[C@H](O)CO)c1 | 520 nM | 2730 nM
OC[C@@H](O)CN1[C@@H](CCc2cccc3ccccc23)CCC[C@H]1CCc1cccc2ccccc12 | 80 nM | 130 nM
OC[C@@H](O)CN1[C@@H](CCc2ccc(-c3ccccc3)cc2)CCC[C@H]1CCc1ccc(-c2ccccc2)cc1 | 2250 nM | 90200 nM
FC(F)Oc1ccc(CC[C@H]2CCC[C@@H](CCc3ccc(OC(F)F)cc3)N2)cc1 | 23 nM | 1750 nM
COc1ccc(F)c(CC[C@H]2CCC[C@@H](CCc3cc(OC)ccc3F)N2)c1 | 39 nM | 930 nM
Fc1cc(F)cc(CC[C@H]2CCC[C@@H](CCc3cc(F)cc(F)c3)N2)c1 | 43 nM | 5240 nM
OC[C@H](O)CN1[C@@H](CCc2cc(F)cc(F)c2)CCC[C@H]1CCc1cc(F)cc(F)c1 | 104 nM | 620 nM
COc1ccc(C[C@H]2CCC[C@@H](Cc3ccc(OC)cc3)N2C[C@@H](O)CO)cc1 | 570 nM | 91000 nM

Continued by falling Ki [1], values first:

Ki [1] | Ki [2] | Compound
790 nM | > 100000 nM | OC[C@H](O)CN1[C@@H](CCc2ccc(-c3ccccc3)cc2)CCC[C@H]1CCc1ccc(-c2ccccc2)cc1
760 nM | 5610 nM | OC[C@@H](O)CN1[C@@H](CCc2ccc3c(c2)OCO3)CCC[C@H]1CCc1ccc2c(c1)OCO2
680 nM | 3490 nM | N=C(N)NCCN1[C@@H](CCc2ccccc2)CCC[C@H]1CCc1ccccc1
190 nM | 1000 nM | OC[C@H](O)CN1[C@@H](CCc2cccc(F)c2)CCC[C@H]1CCc1cccc(F)c1
180 nM | 9590 nM | CN(C)CCN1[C@@H](CCc2ccccc2)CCC[C@H]1CCc1ccccc1
160 nM | 1300 nM | OC[C@H](O)CN1[C@@H](CCc2ccc3c(c2)OCO3)CCC[C@H]1CCc1ccc2c(c1)OCO2
160 nM | 210 nM | COc1ccc(F)c(CC[C@H]2CCC[C@@H](CCc3cc(OC)ccc3F)N2C[C@@H](O)CO)c1
140 nM | 10400 nM | OC[C@H](O)CN1[C@@H](CCc2ccc(Cl)cc2Cl)CCC[C@H]1CCc1ccc(Cl)cc1Cl
90 nM | 13900 nM | OC[C@@H](O)CN1[C@@H](CCc2ccc(Cl)cc2Cl)CCC[C@H]1CCc1ccc(Cl)cc1Cl
60 nM | 530 nM | OC[C@H](O)CN1[C@@H](CCc2ccc(OC(F)F)cc2)CCC[C@H]1CCc1ccc(OC(F)F)cc1
48 nM | 13100 nM | COc1ccc(C[C@H]2CCC[C@@H](Cc3ccc(OC)cc3)N2)cc1
30 nM | 310 nM | OC[C@H](O)CN1[C@@H](CCc2cccc3ccccc23)CCC[C@H]1CCc1cccc2ccccc12
